# Data from patent US10131659B2, “Iodonium analogs as inhibitors of NADPH oxidases and other flavin dehydrogenases; formulations thereof; and uses thereof” (priority 2014, dated 2018).
# Columns and labels:
# [1] = test system: HT-29 human colon cancer cells; test: Clonogenic assay, HT-29 cells; type: cell-based; conditions: for IC50: Homo sapiens
# Description: Several iodonium analog compounds were analyzed for inhibition of HT-29 growth using a clonogenic assay performed as described in Doroshow et al Biochem. Biophys. Res. Commun. 135: 330-335, 1986.
# [2] = test system: HT-29 human colon cancer cells; conditions: Free Rad. Biol. Med. 57: 162-165, 2013; cited from earlier work
# [3] = test system: ROS production in HT-29 human colon cancer cells; test: ROS production in HT-29 cells (chemiluminescence / DCF analytical cytometry); type: cell-based; conditions: treatment for 24 hr with 10 nM
# [4] = test system: HT-29 human colon cancer cells; test: Growth inhibition of HT-29 cells by MTT assay; type: cell-based; conditions: Homo sapiens, HT-29; 48 hr drug exposure; read-out: IC50, HT-29 human colon cancer cell growth
# Description: The compounds were analyzed for growth inhibition of HT-29 human colon cancer cells by MTT assay: 48 hr, drug exposures over several orders of concentration. The MTT assay was performed as described in Wu et al J. Immunology 190: 1859-1872, 2013.
structure (smiles),measurement,setting,value
"c1ccc2c(c1)[I+]c1ccccc1-2 [Compound 13, Diphenyleneiodonium chloride, reference compound]",cytotoxic or cytostatic character,[1],cytostatic
same,exposure required to inhibit growth / cell reproduction,[1],requires prolonged exposure
same,IC50,"[1]; HT-29, 240 h, 10 days exposure, read-out: IC50 clonogenic survival, 10 days drug exposure",~10 nM
same,IC50,"[1]; HT-29, read-out: IC50 (±SE) clonogenic survival, 2 hrs drug exposure, 2 hrs exposure",9300 ± 3900 nM
same,IC50,"[1]; HT-29, read-out: IC50 (±SE) clonogenic survival, 6 hrs drug exposure, 6 hrs exposure",799 ± 180 nM
same,effect on cell cycle progression,[2],only G1 block
same,ROS production in HT-29 cells,[3],significantly decreased
same,IC50,[4],300 nM
